In patent US11944600B2, “Use of cannabinoids in the treatment of a neurodegenerative disease or disorder” (priority 2017, dated 2024):

Key:
[1] = test system: ALS patients; conditions: in some patients; cited from earlier work
[2] = test system: experimental model of ALS; conditions: prior art statement; cited from earlier work
[3] = test system: TDP-43 transgenic mice; assay: Nissl-stained spinal motor neurons in TDP-43 transgenic mouse model of ALS; assay type: in vivo; conditions: TDP-43 transgenic male mice, 10 mg/kg/day i.p. from 60 to 90 days of age, vs vehicle (p<0.05), FIG. 1
Protocol: (§1) A transgenic mouse model of ALS, TDP-43, was used to determine the effects of the cannabinoids in treatment of symptoms of ALS.
(§2) The TDP-43 transgenic and wild-type mice were subjected to genotyping to identify the presence of mutant TDP-43 gene. These mice were used for a chronic i.p. treatment (from 60 days of age up to the age of 90 days) with cannabinoid or vehicle.
(§3) All studies were conducted in male mice (n=6-8 subjects in each experimental group).
(§4) The neuroprotective effects of 2 different phytocannabinoids (CBDV and CBDA) were investigated. The cannabinoids were administered at a dose of 10 mg/kg/day.
(§5) Animals were euthanized at the end of the treatment period and their spinal cords collected for biochemical and histopathological analyses.
(§6) Data were assessed using one-way (immunostaining data) or two-way (rotarod data) ANOVA followed by an appropriate post-hoc test (Student Newman-Keuls for immunostaining data, and Bonferroni for behavioural data) significance was reported at p≤0.05. Data shown in the figures represent “p<0.01, ***p<0.001.

[4] = test system: TDP-43 transgenic mice; assay: Limb clasping in TDP-43 transgenic mice; assay type: in vivo, mouse; conditions: TDP-43 transgenic male mice, 10 mg/kg/day i.p., FIG. 5
Protocol: as §1, §2, §3, §4
(§7) Animals were recorded for neurological decline by testing rotarod performance and observing limb clasping during the whole treatment period. The weight of the animals was also recorded during the treatment period.
as §6

[5] = test system: TDP-43 transgenic mice; assay: Rotarod test in TDP-43 transgenic mice; assay type: in vivo, mouse; conditions: 10 mg/kg/day i.p.; for motor performance on rotarod compared to wild type: vs wild type
Protocol: as §1, §2, §3, §4, §7, §6
The rotarod test was utilised to quantify the muscle weakness characteristic of TDP-43 transgenic mice.

[6] = test system: TDP-43 transgenic mice; assay: lba-1 immunostaining of spinal cord microglial cells in TDP-43 transgenic mice; assay type: in vivo, mouse; conditions: TDP-43 transgenic male mice, 10 mg/kg/day i.p. from 60 to 90 days of age, FIG. 3
Protocol: as §1, §2, §3, §4, §5
Data were assessed using one-way (immunostaining data) or two-way (rotarod data) ANOVA followed by an appropriate post-hoc test (Student Newman-Keuls for immunostaining data, and Bonferroni for behavioural data) significance was reported at p≤0.05. […]
The number of microglial cells in the spinal cord was quantified using lba-1 immunostaining, and again differentiating resting and activated cells through the analysis of their morphological characteristics (e.g. cell shape and size, type of processes). […] This was also seen when the ratio between cell body area and cell process length was calculated.

[7] = test system: TDP-43 transgenic mice; assay: GFAP immunostaining of spinal cord astrocytes in TDP-43 transgenic mice; assay type: in vivo, mouse; conditions: TDP-43 transgenic male mice, 10 mg/kg/day i.p. from 60 to 90 days of age, FIG. 2
Protocol: as §1, §2, §3, §4, §5, §6
The reduction of spinal motor neurons in TDP-43 transgenic mice was associated with an elevation in the number of astrocytes labelled with Glial fibrillary acidic protein (GFAP) immunostaining, in particular activated astrocytes identified by analysis of their morphological characteristics (e.g. increased cell shape and size, reduction in the length of processes).

[8] = test system: TDP-43 transgenic mice; assay: Weight gain in TDP-43 transgenic mice; assay type: in vivo, mouse; conditions: TDP-43 transgenic male mice, 10 mg/kg/day i.p., FIG. 6A/6B
Protocol: as §1, §2, §3, §4, §7
The weight gain of animals was also monitored, this is a variable which is frequently used to monitor disease progression in animal models of ALS.

[9] = test system: mSOD1-transgenic (G93A) mice; assay: Nissl-stained motor neurons in ventral horn of spinal cord in SOD-1 transgenic mice; assay type: in vivo, mouse; conditions: SOD-1 mutant male mice vs vehicle-treated mutant mice; BDS 10 mg/kg i.p., olesoxime 3 mg/kg s.c., 10 to 21 weeks of age, FIG. 9
Protocol: (§8) A transgenic mouse model of ALS, SOD1, was used to determine the effects of the combined treatment of a drug used in the treatment of ALS, olesoxime, with THC.
(§9) mSOD1-transgenic (G93A) and wild-type mice were subjected to genotyping to identify the presence of mutant SOD-1. These mice were used for chronic treatment (from 10 weeks of age up to the age of 21 weeks) with test article or vehicle.
as §3
(§10) The treatment groups were as follows: THC-BDS (10 mg/kg; i.p.); CBD-BDS (10 mg/kg; i.p); olesoxime (3 mg/kg; s.c.); a combination of THC-BDS and olesoxime; and vehicle. A group of wild-type animals were also treated with vehicle.
as §5
(§11) Data were assessed using one-way (immunostaining data) or two-way (rotarod data) ANOVA followed by an appropriate post-hoc test (Student Newman-Keuls for immunostaining data, and Bonferroni for behavioural data) significance was reported at p≤0.05. Data shown in the figures represent “p<0.01, ***p<0.001
The number of motor neurons in the ventral horn of the spinal cord was quantified using Nissl staining.

[10] = test system: mSOD1-transgenic (G93A) mice; assay: Neurological score in SOD-1 transgenic mice; assay type: in vivo, mouse; conditions: SOD-1 mutant male mice, treated from 10 to 21 weeks of age; BDS 10 mg/kg i.p., olesoxime 3 mg/kg s.c., FIG. 8
Protocol: as §8, §9, §3, §10
(§12) Animals were recorded for neurological decline by testing rotarod performance during the whole treatment period. Animals were recorded for neurological decline (using a previously published ALS-related neurological scale; de Munck et al., 2013).
as §11

[11] = test system: mSOD1-transgenic (G93A) mice; assay: Rotarod performance in SOD-1 transgenic mice; assay type: in vivo, mouse; conditions: SOD-1 transgenic male mice, treated from 10 to 21 weeks of age; BDS 10 mg/kg i.p., olesoxime 3 mg/kg s.c., FIG. 7
Protocol: as §8, §9, §3, §10, §12, §11

[12] = test system: patients with ALS; conditions: 27 patients with ALS, 5 mg of THC twice daily; cited from earlier work

## Nc1nc2ccc(OC(F)(F)F)cc2s1 [riluzole]
[1]
  onset of ventilator-dependence or tracheostomy: delays

## CCCCCc1cc(O)c2c(c1)OC(C)(C)[C@@H]1CCC(C)=C[C@@H]21 [THC, Tetrahydrocannabinol]
[2]
  neuroprotection in an experimental model of ALS: neuroprotective

## C=C(C)[C@@H]1CCC(C)=C[C@H]1c1c(O)cc(CCCCC)c(C(=O)O)c1O [CBDA, Cannabidiolic acid]
[3]
  loss of Nissl-stained motor neurons in the spinal cord: almost completely recovered
[4]
  increase in limb clasping: strongly and significantly attenuated
[5]; TDP-43 mice at 12 weeks of age, vs vehicle
  performance on the rotarod compared to vehicle: significantly superior performance
[5]; TDP-43 mice at 12 weeks of age
  motor performance on rotarod compared to wild type: significantly impaired
[5]; TDP-43 transgenic male mice, even at advanced stages of the disease, FIG. 4
  rotarod performance (latency to fall) during disease progression: attenuated the rotarod worsening
[6]
  lba-1 immunostaining changes (cell bodies, cell processes, ratio), all parameters: reversed the changes
[7]
  ratio between cell body area and process length (GFAP-labelled astrocytes): reduced
  total immunoreactivity for GFAP: reduced
[8]
  marked weight loss (weight gain monitoring): prevent

## CC(C)CCC[C@@H](C)[C@H]1CC[C@H]2[C@@H]3CCC4=CC(=NO)CC[C@]4(C)[C@H]3CC[C@]12C [olesoxime]
[9]
  number of Nissl-stained motor neurons in the ventral horn of the spinal cord: statistically significant
[10]
  elevated Neurological Score (neurological decline): non-significant trends towards a reduced score
[11]
  rotarod performance (time spent on the rod): able to attenuate the effect

## CCCCCc1cc(O)c2c(c1)OC(C)(C)c1ccc(C)cc1-2 [CBN, cannabinol, reference compound]
[2]
  neuroprotection in an experimental model of ALS: neuroprotective

## C=C(C)[C@@H]1CCC(C)=C[C@H]1c1c(O)cc(CCC)cc1O [CBDV, Cannabidivarin]
[3]
  loss of Nissl-stained motor neurons in the spinal cord: almost completely recovered
[5]; TDP-43 mice at 12 weeks of age
  motor performance on rotarod compared to wild type: significantly impaired
[6]
  lba-1 immunostaining changes (cell bodies, cell processes, ratio), all parameters: reversed the changes
[7]
  ratio between cell body area and process length (GFAP-labelled astrocytes): reduced
  total immunoreactivity for GFAP: reduced
[8]
  marked weight loss (weight gain monitoring): reduce

## CCCCCc1cc(O)c2c(c1)OC(C)(C)[C@@H]1CCC(C)=C[C@@H]21 [dronabinol]
[12]
  effect on the cramps associated with ALS: failed to have a significant effect
